# Data taken from article PMC11861906, “Structural basis for lipid-mediated activation of G protein-coupled receptor GPR55” (Nature Communications, 2025).
# Key:
# Format in all cases: cell-based
# [1] = target: GPR55 mutant G152W (Gα13) (Homo sapiens, UniProt Q9Y2T6, G152W); assay: BRET² G protein dissociation assay, GPR55 G152W with Gα13
# Text: (§1) To validate the functionality of the GPR55 cryo-EM construct, we conducted bioluminescence resonance energy transfer 2 (BRET²)-based G protein dissociation assays[46],[47] using an engineered heterotrimeric G13 protein. The N-terminal GFP fusion of the receptor was additionally modified with a G67A mutation to disrupt fluorescence properties. We employed human embryonic kidney (HEK) cells overexpressing wt or mutant GPR55 together with Gβ3, Gγ9-GFP, and Gα13 tagged with Renilla luciferase 8 (Rluc8).
# (§2) G protein dissociation assays were performed according to the original protocols of the TRUPATH BRET² assay[47],[87] but with subtle modifications as previously described[61],[88],[89]. All reagents and cells were obtained from Thermo Fisher Scientific unless indicated otherwise. The coding sequences for the G protein biosensors[47] (Gα12-Rluc8, Gα13-Rluc8, wt Gβ3, and Gγ9-GFP), the wt GPR55, the construct used for cryo-EM (with GFP bearing a G67A mutation to disrupt fluorescence properties[48] for BRET² assays), GPR55 binding pocket mutants (G152^4.56F, G152^4.56W, N171^ECL2Q, N171^ECL2A, T176^5.33A, R253^6.62A), and the wt TBXA2R were codon-optimized for Homo sapiens, gene-synthesized, and sub-cloned into pcDNA^TM3.1(+) between NheI and HindIII restriction sites by GeneArt (Thermo Fisher Scientific). […] Freshly grown cells were washed with Dulbecco’s Balanced Salt Solution (DPBS, cat. #14200075) and detached using trypsin-ethylenediaminetetraacetic acid (trypsin-EDTA) (cat. #25300-062). Then, the cells were reconstituted to 500,000 cells per mL with fresh medium, and 1,000,000 cells were seeded into each well of a 6-well plate. After 3 h incubation at 37 °C and 5% CO2, adherent cells were transfected with 600 ng DNA (1:1:1:1 ratio of plasmid DNA for GPR55, wt Gβ3, Gγ9-GFP, and Gα12-Rluc8 or Gα13-Rluc8). Plasmid DNA was mixed with 1.5 µL Lipofectamine^TM 2000 (cat. #11668027) in Opti-MEM^TM medium (cat. #31985062) and incubated for 20 min. Then, the mixture was added to each well of the 6-well plate following 24 h incubation at 37 °C and 5% CO2. Transfected cells were washed with DPBS, detached using EDTA (Versene, cat. #15040066), and reconstituted into fresh medium at 500,000 cells mL^−1. From this suspension, 50,000 cells were seeded into each well of a white-bottom 96-well plate (Nunc^TM MicroWell^TM 96 wells, cat. #136101) following overnight incubation at 37 °C and 5% CO2. Then, the adherent cells were washed with assay medium [Hank’s balanced salt solution (HBSS, cat. #14065056) plus 20 mM HEPES pH 7.4 (cat. #15630056)] and finally reconstituted into 50 µL of the same medium. […] Methoxy e-Coelenterazine was used as luciferase substrate (Prolume Purple, NanoLight Technology, cat. #369), reconstituted at 1 mM in methanol and diluted to 37.5 µM with assay buffer (7.5 µM final assay concentration). The assay was started by the addition of 20 µL luciferase substrate to each well of the assay plate using a Multidrop^TM Combi reagent dispenser (Thermo Fisher Scientific), followed by 5 min incubation at room temperature. Then, 30 µL of agonist dilutions or DMSO control was added (final DMSO concentration 1.5%), followed by an additional 5 min incubation at room temperature. BRET² measurements were performed with a PHERAstar® FSX microplate reader (BMG LABTECH) using a BRET² filter (donor emission 370–450 nm, acceptor emission 500–530 nm) at the maximum fluorescence gain of 3600. BRET² ratios were calculated by dividing GFP emission signals from Rluc8 emission counts. Buffer-DMSO controls were subtracted from each data point to calculate ΔBRET² ratios.
# [2] = target: GPR55 mutant T176A (Gα13) (Homo sapiens, UniProt Q9Y2T6, T176A); assay: BRET² G protein dissociation assay, GPR55 T176A with Gα13
# Text: as §1, §2
# [3] = target: GPR55 mutant G152F (Gα13) (Homo sapiens, UniProt Q9Y2T6, G152F); assay: BRET² G protein dissociation assay, GPR55 G152F with Gα13
# Text: as §1, §2
# [4] = target: wt GPR55 (Gα13) (Homo sapiens, UniProt Q9Y2T6); assay: BRET² G protein dissociation assay, wt GPR55 with Gα13; conditions: wt GPR55, Gα13
# Text: as §1, §2
# Sequence of GPR55 mutant G152F (Gα13) (Q9Y2T6 whole entry G152F): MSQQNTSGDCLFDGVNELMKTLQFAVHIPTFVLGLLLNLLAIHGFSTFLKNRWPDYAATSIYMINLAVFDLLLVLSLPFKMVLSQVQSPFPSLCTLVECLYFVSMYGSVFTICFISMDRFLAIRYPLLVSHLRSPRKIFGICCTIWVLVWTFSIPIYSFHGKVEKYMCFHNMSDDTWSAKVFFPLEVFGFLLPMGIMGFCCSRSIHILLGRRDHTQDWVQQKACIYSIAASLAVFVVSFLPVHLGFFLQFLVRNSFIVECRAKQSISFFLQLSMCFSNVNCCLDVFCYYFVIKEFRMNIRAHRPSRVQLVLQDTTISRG
# Sequence of GPR55 mutant G152F (Gα13) (Q14344 whole entry partner): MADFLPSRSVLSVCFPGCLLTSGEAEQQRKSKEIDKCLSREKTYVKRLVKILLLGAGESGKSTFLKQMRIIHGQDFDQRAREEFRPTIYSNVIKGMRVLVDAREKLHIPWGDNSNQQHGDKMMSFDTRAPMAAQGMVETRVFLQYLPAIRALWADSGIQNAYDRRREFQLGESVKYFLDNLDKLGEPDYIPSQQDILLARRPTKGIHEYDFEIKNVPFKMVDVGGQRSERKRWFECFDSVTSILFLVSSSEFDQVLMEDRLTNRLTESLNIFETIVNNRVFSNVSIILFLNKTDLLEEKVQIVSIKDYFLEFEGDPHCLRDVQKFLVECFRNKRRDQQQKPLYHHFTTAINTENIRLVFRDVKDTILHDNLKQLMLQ
# Sequence of GPR55 mutant G152F (Gα13) (P16520 whole entry partner): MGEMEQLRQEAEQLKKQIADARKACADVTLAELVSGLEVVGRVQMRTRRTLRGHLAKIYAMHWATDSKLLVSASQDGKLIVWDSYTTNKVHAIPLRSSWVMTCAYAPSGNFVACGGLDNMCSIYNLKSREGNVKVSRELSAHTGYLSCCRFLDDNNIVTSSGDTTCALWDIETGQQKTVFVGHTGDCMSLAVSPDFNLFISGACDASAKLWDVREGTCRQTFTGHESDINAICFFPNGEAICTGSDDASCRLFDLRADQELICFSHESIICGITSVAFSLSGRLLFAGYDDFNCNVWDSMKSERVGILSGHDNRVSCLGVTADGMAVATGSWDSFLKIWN
# Sequence of GPR55 mutant G152F (Gα13) (O14610 1-66 partner limits assumed): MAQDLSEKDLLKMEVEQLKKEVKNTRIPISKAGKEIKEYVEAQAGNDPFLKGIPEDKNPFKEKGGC
# Sequence of GPR55 mutant T176A (Gα13) (Q9Y2T6 whole entry T176A): as the sequence (Q9Y2T6 whole entry G152F) above, with F152G, T176A counted along it
# Sequence of GPR55 mutant T176A (Gα13) (Q14344 whole entry partner): as the sequence (Q14344 whole entry partner) above
# Sequence of GPR55 mutant T176A (Gα13) (P16520 whole entry partner): as the sequence (P16520 whole entry partner) above
# Sequence of GPR55 mutant T176A (Gα13) (O14610 1-66 partner limits assumed): as the sequence (O14610 1-66 partner limits assumed) above
# Sequence of GPR55 mutant G152W (Gα13) (Q9Y2T6 whole entry G152W, the tested form may be a part): as the sequence (Q9Y2T6 whole entry G152F) above, with F152W counted along it
# Sequence of GPR55 mutant G152W (Gα13) (Q14344 whole entry partner, the tested form may be a part): as the sequence (Q14344 whole entry partner) above
# Sequence of GPR55 mutant G152W (Gα13) (P16520 whole entry partner, the tested form may be a part): as the sequence (P16520 whole entry partner) above
# Sequence of GPR55 mutant G152W (Gα13) (O14610 1-66 partner limits assumed): as the sequence (O14610 1-66 partner limits assumed) above
# Sequence of wt GPR55 (Gα13) (Q9Y2T6 whole entry): as the sequence (Q9Y2T6 whole entry G152F) above, with F152G counted along it
# Sequence of wt GPR55 (Gα13) (Q14344 whole entry partner): as the sequence (Q14344 whole entry partner) above
# Sequence of wt GPR55 (Gα13) (P16520 whole entry partner): as the sequence (P16520 whole entry partner) above
# Sequence of wt GPR55 (Gα13) (O14610 1-66 partner limits assumed): as the sequence (O14610 1-66 partner limits assumed) above
compound,measurement,setting,value
CCCCC[C@H](O)/C=C/[C@@H]1[C@@H](C/C=C\CCCC(=O)O)[C@H]2CO[C@@H]1C2 [U-46619],"Mean (plotted) BRET² response, GPR55-G152W-G13",[1]; Concentration 10 pM,0.00225
same,"Mean (plotted) BRET² response, GPR55-G152W-G13",[1]; Concentration 30 pM,-0.00435
same,"Mean (plotted) BRET² response, GPR55-G152W-G13",[1]; Concentration 100 pM,-0.00495
same,"Mean (plotted) BRET² response, GPR55-G152W-G13",[1]; Concentration 300 pM,-0.0004516
same,"Mean (plotted) BRET² response, GPR55-G152W-G13",[1]; Concentration 1e-9 M,-0.001887
same,"Mean (plotted) BRET² response, GPR55-G152W-G13",[1]; Concentration 3e-9 M,7.154e-5
same,"Mean (plotted) BRET² response, GPR55-G152W-G13",[1]; Concentration 1e-8 M,-0.01413
same,"Mean (plotted) BRET² response, GPR55-G152W-G13",[1]; Concentration 3e-8 M,-6.439e-5
same,"Mean (plotted) BRET² response, GPR55-G152W-G13",[1]; Concentration 1e-7 M,0.001032
same,"Mean (plotted) BRET² response, GPR55-G152W-G13",[1]; Concentration 3e-7 M,0.002926
same,"Mean (plotted) BRET² response, GPR55-G152W-G13",[1]; Concentration 1e-6 M,-0.00228
same,"Mean (plotted) BRET² response, GPR55-G152W-G13",[1]; Concentration 3e-6 M,-0.002139
same,"Mean (plotted) BRET² response, GPR55-G152W-G13",[1]; Concentration 1e-5 M,-0.008827
same,"Mean (plotted) BRET² response, GPR55-G152W-G13",[1]; Concentration 3e-5 M,-0.0048
same,"Mean (plotted) BRET² response, GPR55-T176A-G13",[2]; Concentration 10 pM,-0.0049
same,"Mean (plotted) BRET² response, GPR55-T176A-G13",[2]; Concentration 30 pM,0.00215
same,"Mean (plotted) BRET² response, GPR55-T176A-G13",[2]; Concentration 100 pM,0.0004
same,"Mean (plotted) BRET² response, GPR55-T176A-G13",[2]; Concentration 300 pM,0.0002029
same,"Mean (plotted) BRET² response, GPR55-T176A-G13",[2]; Concentration 1e-9 M,0.000161
same,"Mean (plotted) BRET² response, GPR55-T176A-G13",[2]; Concentration 3e-9 M,0.0002381
same,"Mean (plotted) BRET² response, GPR55-T176A-G13",[2]; Concentration 1e-8 M,-0.0002172
same,"Mean (plotted) BRET² response, GPR55-T176A-G13",[2]; Concentration 3e-8 M,0.0004783
same,"Mean (plotted) BRET² response, GPR55-T176A-G13",[2]; Concentration 1e-7 M,-0.0003604
same,"Mean (plotted) BRET² response, GPR55-T176A-G13",[2]; Concentration 3e-7 M,0.004625
same,"Mean (plotted) BRET² response, GPR55-T176A-G13",[2]; Concentration 1e-6 M,0.001082
same,"Mean (plotted) BRET² response, GPR55-T176A-G13",[2]; Concentration 3e-6 M,-0.0002941
same,"Mean (plotted) BRET² response, GPR55-T176A-G13",[2]; Concentration 1e-5 M,0.003133
same,"Mean (plotted) BRET² response, GPR55-T176A-G13",[2]; Concentration 3e-5 M,0.0069
same,"Mean (plotted) BRET² response, GPR55-G152F-G13",[3]; Concentration 10 pM,-0.003
same,"Mean (plotted) BRET² response, GPR55-G152F-G13",[3]; Concentration 30 pM,0.00205
same,"Mean (plotted) BRET² response, GPR55-G152F-G13",[3]; Concentration 100 pM,0.0008
same,"Mean (plotted) BRET² response, GPR55-G152F-G13",[3]; Concentration 300 pM,-0.003135
same,"Mean (plotted) BRET² response, GPR55-G152F-G13",[3]; Concentration 1e-9 M,0.0004643
same,"Mean (plotted) BRET² response, GPR55-G152F-G13",[3]; Concentration 3e-9 M,-0.004129
same,"Mean (plotted) BRET² response, GPR55-G152F-G13",[3]; Concentration 1e-8 M,-0.009075
same,"Mean (plotted) BRET² response, GPR55-G152F-G13",[3]; Concentration 3e-8 M,-0.001052
same,"Mean (plotted) BRET² response, GPR55-G152F-G13",[3]; Concentration 1e-7 M,-0.0003089
same,"Mean (plotted) BRET² response, GPR55-G152F-G13",[3]; Concentration 3e-7 M,-0.001149
same,"Mean (plotted) BRET² response, GPR55-G152F-G13",[3]; Concentration 1e-6 M,-0.0006267
same,"Mean (plotted) BRET² response, GPR55-G152F-G13",[3]; Concentration 3e-6 M,-0.009104
same,"Mean (plotted) BRET² response, GPR55-G152F-G13",[3]; Concentration 1e-5 M,-0.008346
same,"Mean (plotted) BRET² response, GPR55-G152F-G13",[3]; Concentration 3e-5 M,-0.007499
same,G protein activation at GPR55-transfected cells (in words),[4],inactive
